Results on one compound are retold here after patent US20140243197A1, “CARBAMOYLMETHOXY- AND CARBAMOYLMETHYLTHIO- AND CARBAMOYLMETHYLAMINO BENZAMIDES FOR COMBATING INVERTEBRATE PESTS” (BASF SE, priority 2011, published 2014).

In one test the test system is Plutella xylostella. Nature of the test: Diamond backmoth leaf-dip test on cabbage leaves, mortality. It counts as in vivo. The following applies: 3rd instar larvae, cabbage leaves dipped, recorded 72 hours after treatment, read-out: mortality in comparison with untreated controls. The procedure:
The active compound was dissolved at the desired concentration in a mixture of 1:1 (vol:vol) distilled water: aceteone. Surfactant (Alkamuls® EL 620) was added at a rate of 0.1% (vol/vol). The test solution was prepared at the day of use.
Leaves of cabbage were dipped in test solution and air-dried. Treated leaves were placed in petri dishes lined with moist filter paper and inoculated with ten 3rd instar larvae. Mortality was recorded 72 hours after treatment. Feeding damages were also recorded using a scale of 0-100%.

A further test relates to Spodoptera eridiana. Nature of the test: Southern armyworm foliar spray test on lima bean plants, mortality. It counts as in vivo. To be noted: 96 h, 2nd instar larvae, lima bean foliage sprayed, assessed 4 days after treatment, read-out: mortality in comparison with untreated controls. The procedure: The active compounds were formulated in cyclohexanone as a 10,000 ppm solution supplied in tubes. The tubes were inserted into an automated electrostatic sprayer equipped with an atomizing nozzle and they served as stock solutions for which lower dilutions were made in 50% acetone:50% water (v/v). A nonionic surfactant (Kinetic) was included in the solution at a volume of 0.01% (v/v).
Lima bean plants (variety Sieva) were grown 2 plants to a pot and selected for treatment at the 1st true leaf stage. Test solutions were sprayed onto the foliage by an automated electrostatic plant sprayer equipped with an atomizing spray nozzle. The plants were dried in the sprayer fume hood and then removed from the sprayer. Each pot was placed into perforated plastic bags with a zip closure. About 10 to 11 armyworm larvae were placed into the bag and the bags zipped closed. Test plants were maintained in a growth room at about 25° C. and about 20-40% relative humidity for 4 days, avoiding direct exposure to fluorescent light (24 hour photoperiod) to prevent trapping of heat inside the bags. Mortality and reduced feeding were assessed 4 days after treatment, compared to untreated control plants.

As for `CNC(=O)CONC(=O)c1cc(Cl)cc(C)c1NC(=O)c1cnn(CC(F)(F)F)c1-c1ncccc1Cl` [Compound 1-1, 5-(3-chloro-pyridin-2-yl)-1-(2,2,2-trifluoro-ethyl)-1H-pyrazole-4-carboxylic acid (4-chloro-2-methyl-6-methylcarbamoylmethoxycarbamoyl-phenyl)-amide], the mortality at 500 ppm in the test with Plutella xylostella and with Spodoptera eridiana was 100% in each case.
